Results published in patent US10669272B2, “Substituted naphthyridinone compounds useful as T cell activators” (BRISTOL-MYERS SQUIBB COMPANY, priority 2018, dated 2020).
Read-outs that look alike come from different tables or passages of the source.

Experiments:
Human venous whole blood = test: Human whole blood IFN-γ assay; assay type: cell-based; details: human whole blood, read-out: INFg Whole Blood Normalized Agonist EC50;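 note: blood from healthy donors exposed to compound for 1 h before stimulation with anti-CD3 and anti-CD28 at 1 µg/mL each, IFN-γ quantified in supernatant by AlphaLISA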
Description: Human Whole Blood IFN-γ Assay
Human venous whole blood (22.5 μL per well), obtained from healthy donors, was pre-treated with compounds for one hour at 37° C. in a humidified 95% air/5% CO2 incubator. The blood was stimulated with 2.5 μL anti-human CD3 and anti-CD28 mAb at a final concentration of 1 μg/mL each for 24 hours at 37° C. IFN-γ in the supernatants was measured using AlphLISA kit (Cat # AL217).

naïve human CD8 T cells = test: Human CD8 T cells IFN-γ assay; assay type: cell-based; details: read-out: HuCD8 INFG Normalized EC50;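 note: Naïve human CD8 T cells stimulated with plate-bound anti-CD3 and soluble anti-CD28, IFN-γ in supernatant quantified by AlphaLISA and converted to pg/mL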
human DGKα = target: T1, human DGKα (Homo sapiens, UniProt P23743); test: DGKα LIPGLO assay (extruded liposome substrate), in vitro DGK inhibition; assay type: biochemical; details: liposome (LIPGLO) assay; read-out: DGKa LIPGLO IC50
T1 construct: TVMV protease cleavage site (C); Hexa-His (C); made in house; host or cells: Sf9 insect cells (baculovirus, Bac-to-Bac)
T1 sequence (P23743 with tags, fused parts or gaps): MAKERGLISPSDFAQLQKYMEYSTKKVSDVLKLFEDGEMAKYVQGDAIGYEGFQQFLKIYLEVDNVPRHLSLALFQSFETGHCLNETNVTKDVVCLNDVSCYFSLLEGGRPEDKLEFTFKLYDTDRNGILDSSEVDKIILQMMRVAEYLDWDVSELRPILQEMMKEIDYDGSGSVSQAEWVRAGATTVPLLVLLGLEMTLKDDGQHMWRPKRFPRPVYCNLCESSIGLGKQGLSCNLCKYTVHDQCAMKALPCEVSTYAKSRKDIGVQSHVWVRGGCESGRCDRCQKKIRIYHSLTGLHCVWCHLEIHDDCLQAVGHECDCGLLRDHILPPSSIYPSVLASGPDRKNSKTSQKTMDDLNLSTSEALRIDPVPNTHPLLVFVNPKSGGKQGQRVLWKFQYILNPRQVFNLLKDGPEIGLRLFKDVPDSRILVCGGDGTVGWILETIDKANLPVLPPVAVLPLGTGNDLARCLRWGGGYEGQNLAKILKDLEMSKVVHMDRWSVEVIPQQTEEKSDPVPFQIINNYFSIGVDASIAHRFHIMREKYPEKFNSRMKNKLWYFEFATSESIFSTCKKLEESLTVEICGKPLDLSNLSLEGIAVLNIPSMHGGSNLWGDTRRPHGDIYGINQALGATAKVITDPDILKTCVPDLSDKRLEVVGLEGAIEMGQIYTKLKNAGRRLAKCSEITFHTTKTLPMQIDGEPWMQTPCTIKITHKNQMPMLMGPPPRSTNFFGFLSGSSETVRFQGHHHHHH

human DGKζ = target: T2, human DGKζ (Homo sapiens, UniProt Q13574); test: DGKζ LIPGLO assay (extruded liposome substrate), in vitro DGK inhibition; assay type: biochemical; details: liposome (LIPGLO) assay; read-out: DGKz LIPGLO IC50
T2 construct: TVMV protease cleavage site (C); Hexa-His (C); made in house; host or cells: Sf9 insect cells (baculovirus, Bac-to-Bac)
T2 sequence (Q13574 with tags, fused parts or gaps isoform Q13574-4): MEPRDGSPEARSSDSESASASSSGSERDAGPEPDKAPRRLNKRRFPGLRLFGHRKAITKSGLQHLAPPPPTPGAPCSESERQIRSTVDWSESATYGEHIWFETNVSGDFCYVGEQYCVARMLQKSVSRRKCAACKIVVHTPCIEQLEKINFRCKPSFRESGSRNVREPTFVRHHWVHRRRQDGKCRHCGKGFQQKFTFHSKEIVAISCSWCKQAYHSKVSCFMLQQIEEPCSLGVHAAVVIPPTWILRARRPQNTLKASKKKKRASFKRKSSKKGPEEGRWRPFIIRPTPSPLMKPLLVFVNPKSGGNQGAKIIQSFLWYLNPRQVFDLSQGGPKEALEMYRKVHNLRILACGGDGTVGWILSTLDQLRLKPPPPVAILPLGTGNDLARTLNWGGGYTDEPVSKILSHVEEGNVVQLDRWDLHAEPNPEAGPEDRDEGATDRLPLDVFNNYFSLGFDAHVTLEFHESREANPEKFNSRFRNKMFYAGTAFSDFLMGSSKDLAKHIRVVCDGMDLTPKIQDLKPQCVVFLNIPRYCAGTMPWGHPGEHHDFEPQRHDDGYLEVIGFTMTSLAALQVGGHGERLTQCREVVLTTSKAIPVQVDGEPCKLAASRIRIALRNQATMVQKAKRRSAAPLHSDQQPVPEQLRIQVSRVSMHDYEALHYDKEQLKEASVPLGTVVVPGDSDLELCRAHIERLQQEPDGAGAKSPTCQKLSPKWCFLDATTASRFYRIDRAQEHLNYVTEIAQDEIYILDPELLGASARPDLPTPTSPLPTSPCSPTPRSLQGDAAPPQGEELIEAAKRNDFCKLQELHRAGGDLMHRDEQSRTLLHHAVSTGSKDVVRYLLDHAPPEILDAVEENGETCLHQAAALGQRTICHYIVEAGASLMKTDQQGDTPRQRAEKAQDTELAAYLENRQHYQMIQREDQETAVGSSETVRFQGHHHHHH

[1] = Homo sapiens, normalized to 3 μM reference compound with anti-CD3 plus anti-CD28 as 100% activation
[2] = Homo sapiens, T-cell, 20 h, normalized to 3 μM reference compound with anti-CD3 plus anti-CD28 as 100% activation
[3] = normalized to 3 μM reference compound with anti-CD3 plus anti-CD28 as 100% activation

| Structure (SMILES) | EC50 (Human venous whole blood; [1]) [µM] | EC50 (naïve human CD8 T cells; [2]) [µM] | IC50 (human DGKα) [µM] | IC50 (human DGKζ) [µM] | EC50 (naïve human CD8 T cells; [3]) [µM] | EC50 (Human venous whole blood; anti-CD3 plus anti-CD28, 24 hours, 3 μM reference compound = 100% activation) [µM] | EC50 (naïve human CD8 T cells; Homo sapiens, T-cell, 20 h, naïve human CD8 T cells, anti-CD3 plus anti-CD28, 3 μM reference compound = 100% activation) [µM] |
| --- | --- | --- | --- | --- | --- | --- | --- |
| CCC(c1ccc(F)cc1F)N1C[C@H](C)N(c2cc(=O)n(C)c3ccc(C#N)nc23)C[C@H]1C (mixture of isomers) [Example 337, 8-((2S,5R)-4-(1-(2,4-difluorophenyl)propyl)-2,5-dimethylpiperazin-1-yl)-5-methyl-6-oxo-5,6-dihydro-1,5-naphthyridine-2-carbonitrile] | 0.44 | 0.048 |  |  |  |  |  |
| COc1cc(F)ccc1C(c1ccc(F)cc1)N1C[C@H](C)N(c2c(C#N)c(=O)n(C)c3ccc(C#N)nc23)C[C@H]1C (single isomer, unassigned) [Example 111] |  | 0.073 | 62 | 1.6 |  |  |  |
| COC(=O)C1CN(C(c2ccc(F)cc2)c2ccc(F)cc2)CCN1c1cc(=O)n(C)c2ccc(C#N)nc12 (single isomer, unassigned) [Example 137, Methyl 4-(bis(4-fluorophenyl)methyl)-1-(6-cyano-1-methyl-2-oxo-1,2-dihydro-1,5-naphthyridin-4-yl)piperazine-2-carboxylate] |  |  | 240 | 33 | 1.5 |  |  |
| Cn1c(=O)cc(N2CCN(C(c3ccc(F)cc3)c3ccc(F)cc3)CC2C(=O)NC2CC2)c2nc(C#N)ccc21 (single isomer, unassigned) [Example 140, 4-(bis(4-fluorophenyl)methyl)-1-(6-cyano-1-methyl-2-oxo-1,2-dihydro-1,5-naphthyridin-4-yl)-N-cyclopropylpiperazine-2-carboxamide] |  |  | 150 | 25 | 6.6 |  |  |
| Cn1c(=O)cc(N2CCN(C(c3ccc(F)cc3)c3ccc(F)cc3)CC2C(N)=O)c2nc(C#N)ccc21 (single isomer, unassigned) [Example 142, 4-(bis(4-fluorophenyl)methyl)-1-(6-cyano-1-methyl-2-oxo-1,2-dihydro-1,5-naphthyridin-4-yl)piperazine-2-carboxamide] |  | 10 | 40 | 65 |  |  |  |
| Cn1c(=O)cc(N2CCN(C(c3ccc(F)cc3)c3ccc(F)cc3)CC2C#N)c2nc(C#N)ccc21 (single isomer, unassigned) [Example 144, 8-(4-(bis(4-fluorophenyl)methyl)-2-cyanopiperazin-1-yl)-5-methyl-6-oxo-5,6-dihydro-1,5-naphthyridine-2-carbonitrile] |  | 1.2 | 1.4 | 2.4 |  |  |  |
| Cn1c(=O)cc(N2CCN(C(c3ccc(F)cc3)c3ccc(F)cc3)CC2CO)c2nc(C#N)ccc21 (single isomer, unassigned) [Example 147, 8-(4-(bis(4-fluorophenyl)methyl)-2-(hydroxymethyl)piperazin-1-yl)-5-methyl-6-oxo-5,6-dihydro-1,5-naphthyridine-2-carbonitrile] |  |  | 48 | 15 | 2 |  |  |
| Cn1c(=O)cc(N2CCN(C(c3ccc(F)cc3)c3ccc(F)cc3)CC2CO)c2nc(C#N)ccc21 (single isomer, unassigned) [Example 148, 8-(4-(bis(4-fluorophenyl)methyl)-2-(hydroxymethyl)piperazin-1-yl)-5-methyl-6-oxo-5,6-dihydro-1,5-naphthyridine-2-carbonitrile] |  |  | 240 | 75 | 0.42 |  |  |
| Cn1c(=O)cc(N2CCN(C(c3ccc(F)cc3)c3ccc(F)cc3)CC2CF)c2nc(C#N)ccc21 (single isomer, unassigned) [Example 150, 8-(4-(bis(4-fluorophenyl)methyl)-2-(fluoromethyl)piperazin-1-yl)-5-methyl-6-oxo-5,6-dihydro-1,5-naphthyridine-2-carbonitrile] |  |  | 240 | 29 | 10 |  |  |
| Cn1c(=O)cc(N2CCN(C(c3ccc(F)cc3)c3ccc(F)cc3)CC2CF)c2nc(C#N)ccc21 (single isomer, unassigned) [Example 151, 8-(4-(bis(4-fluorophenyl)methyl)-2-(fluoromethyl)piperazin-1-yl)-5-methyl-6-oxo-5,6-dihydro-1,5-naphthyridine-2-carbonitrile] |  |  | 3.6 | 8.8 | 0.15 |  |  |
| COc1ccc2c(n1)c(N1C[C@@H](C)N(C(c3ccccc3)c3ccc(F)cc3)C[C@@H]1C)cc(=O)n2C (single isomer, unassigned) [Example 238] |  | 5 | 17 | 79 |  |  |  |
| COc1ccc2c(n1)c(N1C[C@@H](C)N(C(c3ccccc3)c3ccc(F)cc3)C[C@@H]1C)cc(=O)n2C (single isomer, unassigned) [Example 239] |  |  | 5.9 | 64 | 10 |  |  |
| CCC(c1ccc(F)cc1F)N1C[C@H](C)N(c2cc(=O)n(C)c3ccc(C#N)nc23)C[C@H]1C (single isomer, unassigned) [Example 338] | 0.13 | 0.02 |  |  |  |  |  |
| C[C@@H]1CN(c2c(C#N)c(=O)n(C)c3ccc(C#N)nc23)CCN1C(c1ccccc1)c1ccc(Cl)cc1 (single isomer, unassigned) [Example 886] |  |  |  |  |  | 0.6 | 0.0096 |
| C[C@@H]1CN(C(c2ccc(F)cc2)c2ccc(F)cc2)[C@@H](C)CN1c1c(C#N)c(=O)n(C)c2ccc(C#N)nc12 [Example 6, 8-((2R,5S)-4-(bis(4-fluorophenyl)methyl)-2,5-dimethylpiperazin-1-yl)-5-methyl-6-oxo-5,6-dihydro-1,5-naphthyridine-2,7-dicarbonitrile] |  | 0.56 | 25 | 16 |  |  |  |
| Cn1c(=O)c(C#N)c(N2CCN(C(c3ccc(F)cc3)c3ccc(F)cc3)C(CO)C2)c2nc(Br)ccc21 (stereo not drawn) [Example 17, 4-(4-(bis(4-fluorophenyl)methyl)-3-(hydroxymethyl)piperazin-1-yl)-6-bromo-1-methyl-2-oxo-1,2-dihydro-1,5-naphthyridine-3-carbonitrile] |  | 6.5 | 2.3 | 19 |  |  |  |
| Cn1c(=O)cc(N2CCN(C(c3ccc(F)cc3)c3ccc(F)cc3)C(C(=O)O)C2)c2nc(C#N)ccc21 (stereo not drawn) [Example 55, 1-(bis(4-fluorophenyl)methyl)-4-(6-cyano-1-methyl-2-oxo-1,2-dihydro-1,5-naphthyridin-4-yl)piperazine-2-carboxylic acid] |  | 6.4 | 240 | 180 |  |  |  |
| Cn1c(=O)c(C#N)c(N2CCN(C(c3ccc(F)cc3)c3ccc(F)cc3)CC2CO)c2nc(Br)ccc21 (stereo not drawn) [Example 118, 4-(4-(bis(4-fluorophenyl)methyl)-2-(hydroxymethyl)piperazin-1-yl)-6-bromo-1-methyl-2-oxo-1,2-dihydro-1,5-naphthyridine-3-carbonitrile] |  | 0.71 | 10 | 63 |  |  |  |
| Cn1c(=O)cc(N2CCN(C(c3ccc(F)cc3)c3ccc(F)cc3)CC2C(=O)O)c2nc(C#N)ccc21 (stereo not drawn) [Example 138, 4-(bis(4-fluorophenyl)methyl)-1-(6-cyano-1-methyl-2-oxo-1,2-dihydro-1,5-naphthyridin-4-yl)piperazine-2-carboxylic acid] |  | 10 | 82 | 95 |  |  |  |
| C[C@@H]1CN(c2c(C#N)c(=O)n(C)c3ccc(Br)nc23)[C@@H](C)CN1C(c1ccc(F)cc1)c1ccc(F)cc1 [Example 158, 4-((2S,5R)-4-(bis(4-fluorophenyl)methyl)-2,5-dimethylpiperazin-1-yl)-6-bromo-1-methyl-2-oxo-1,2-dihydro-1,5-naphthyridine-3-carbonitrile] |  | 0.11 | 3.6 | 13 |  |  |  |
| Cn1c(=O)cc(N2CCN(C(c3ccc(F)cc3)c3ccc(F)cc3)C(C)(C)C2)c2nc(C#N)ccc21 [Example 171, 8-(4-(bis(4-fluorophenyl)methyl)-3,3-dimethylpiperazin-1-yl)-5-methyl-6-oxo-5,6-dihydro-1,5-naphthyridine-2-carbonitrile] |  | 10 | 0.24 | 94 |  |  |  |
| C[C@@H]1CN(c2cc(=O)n(C)c3ccc(C#N)nc23)[C@@H](C)CN1C(c1ccccc1)c1ccccc1 [Example 237, 8-[(2S,5R)-4-(diphenylmethyl)-2,5-dimethylpiperazin-1-yl]-5-methyl-6-oxo-5,6-dihydro-1,5-naphthyridine-2-carbonitrile] |  | 0.039 | 0.93 | 1.4 |  |  |  |
| COc1ccc2c(n1)c(N1C[C@@H](C)N(C(c3ccc(F)cc3)c3ccc(Cl)cc3)C[C@@H]1C)cc(=O)n2C (stereo partly drawn) [Example 240, 4-[(2S,5R)-4-[(4-chlorophenyl)(4-fluorophenyl)methyl]-2,5-dimethylpiperazin-1-yl]-6-methoxy-1-methyl-1,2-dihydro-1,5-naphthyridin-2-one] |  | 12 | 15 | 20 |  |  |  |
| C[C@@H]1CN(c2cc(=O)n(C)c3ccc(C#N)nc23)[C@@H](C)CN1Cc1c(F)cc(C#N)cc1F [Example 267, 8-[(2S,5R)-4-[(4-cyano-2,6-difluorophenyl)methyl]-2,5-dimethylpiperazin-1-yl]-5-methyl-6-oxo-5,6-dihydro-1,5-naphthyridine-2-carbonitrile] |  | 10 | 0.39 | 1.6 |  |  |  |
